Laboratory results from US8143290B2, “Chemical compounds 572” (AstraZeneca AB, priority 2006, dated 2012).

Target: T1, recombinant human GR (Homo sapiens, UniProt P04150)
T1 construct: purchased Panvera/Invitrogen P2812 (kit P2893)
T1 sequence (P04150 1-777): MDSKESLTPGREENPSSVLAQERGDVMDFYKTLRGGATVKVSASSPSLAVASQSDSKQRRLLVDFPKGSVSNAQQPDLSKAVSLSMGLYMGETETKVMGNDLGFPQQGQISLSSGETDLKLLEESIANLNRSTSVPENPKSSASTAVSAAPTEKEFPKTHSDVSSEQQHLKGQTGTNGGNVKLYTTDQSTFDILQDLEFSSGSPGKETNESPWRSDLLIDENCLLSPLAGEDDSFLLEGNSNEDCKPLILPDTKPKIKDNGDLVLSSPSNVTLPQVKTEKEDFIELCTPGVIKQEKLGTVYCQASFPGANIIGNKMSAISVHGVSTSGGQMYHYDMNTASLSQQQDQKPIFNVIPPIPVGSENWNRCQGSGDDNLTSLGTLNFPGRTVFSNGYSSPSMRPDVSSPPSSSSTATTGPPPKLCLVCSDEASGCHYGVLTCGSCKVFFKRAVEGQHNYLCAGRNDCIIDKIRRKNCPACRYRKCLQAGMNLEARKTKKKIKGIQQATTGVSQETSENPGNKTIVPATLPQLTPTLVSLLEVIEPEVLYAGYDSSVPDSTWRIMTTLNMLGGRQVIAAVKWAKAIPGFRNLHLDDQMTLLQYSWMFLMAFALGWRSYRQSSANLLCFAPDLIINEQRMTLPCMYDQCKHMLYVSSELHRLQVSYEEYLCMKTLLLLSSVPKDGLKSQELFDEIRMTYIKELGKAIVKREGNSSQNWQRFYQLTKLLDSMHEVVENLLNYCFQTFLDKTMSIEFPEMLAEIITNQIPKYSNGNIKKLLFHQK
Test: Human Glucocorticoid Receptor (GR) Assay, fluorescence polarization
Assay type: binding
Conditions: GS Red tracer, incubated 2 h at r.t., XLfit model 205, read-out: GRhuFL_FP_v2 Mean IC50
In short: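 Fluorescence polarization kit assay: recombinant GR and GS Red fluorescent ligand with Stabilizing Peptide and DTT in potassium phosphate/sodium molybdate/EDTA screening buffer. Plates incubated 2 h in the dark at r.t.; DMSO served as 0% and dexamethasone as 100% control.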

| SMILES | IC50 [nM] |
| --- | --- |
| COc1cccc([C@@H](Oc2ccc3c(cnn3-c3ccc(F)cc3)c2)[C@H](C)NC(=O)c2ccon2)c1 [Example 280, N-[(1R,2S)-1-[1-(4-fluorophenyl)indazol-5-yl]oxy-1-(3-methoxyphenyl)propan-2-yl]1,2-oxazole-3-carboxamide] | 3.6 |
| COCC(=O)N[C@@H](COC)[C@H](Oc1ccc2c(cnn2-c2ccc(F)cc2)c1)c1cccc(F)c1 [Example 111, N-[(1)-(2R)-(3-Fluorophenyl)-2-{[1-(4-fluorophenyl)-1H-indazole-5-yl]oxy}-1-(methoxymethyl)ethyl]-2-methoxyacetamide] | 15 |
| COCC(=O)N[C@@H](C)[C@H](Oc1ccc2c(cnn2-c2ccc(F)cc2)c1)c1ccc(C(F)(F)F)cc1 [Example 59, N-[(1R,2S)-1-[1-(4-fluorophenyl)indazol-5-yl]oxy-1-[4-(trifluoromethyl)phenyl]propan-2-yl]-2-methoxy-acetamide] | 3.3 |
| CC[S+]([O-])Cc1ccc([C@@H](Oc2ccc3c(cnn3-c3ccc(F)cc3)c2)[C@H](C)NC(=O)C(F)(F)F)cc1 (stereo partly drawn) [Example 26, N-[(1R,2S)-1-[4-(ethylsulfinylmethyl)phenyl]-1-[1-(4-fluorophenyl)indazol-5-yl]oxy-propan-2-yl]-2,2,2-trifluoro-acetamide] | 5.9 |
| Cc1cc2c(cnn2-c2ccc(F)cc2)cc1O[C@H](c1ccccc1)[C@H](C)NC(=O)C(C)(C)C [Example 63, N-[(1R,2S)-1-[1-(4-Fluorophenyl)-6-methyl-indazol-5-yl]oxy-1-phenyl-propan-2-yl]-2,2-dimethyl-propanamide] | 4.4 |
| COc1cccc([C@@H](Oc2ccc3c(cnn3-c3ccc(F)cc3)c2)[C@H](C)NC(=O)c2ccc(C)s2)c1 [Example 131, N-[(1R,2S)-1-[1-(4-fluorophenyl)indazol-5-yl]oxy-1-(3-methoxyphenyl)propan-2-yl]-5-methyl-thiophene-2-carboxamide] | 4 |
| COc1cccc([C@@H](Oc2ccc3c(cnn3-c3ccc(F)cc3)c2)[C@H](C)NC(=O)c2nc3ccccc3s2)c1 [Example 297, N-[(1R,2S)-1-[1-(4-fluorophenyl)indazol-5-yl]oxy-1-(3-methoxyphenyl)propan-2-yl]benzothiazole-2-carboxamide] | 8.6 |
| CCSCc1ccc([C@@H](Oc2ccc3c(cnn3-c3ccc(F)cc3)c2)[C@H](C)NC(=O)C(F)(F)F)cc1 [Example 25, N-[(1R,2S)-1-[4-(ethylsulfanylmethyl)phenyl]-1-[1-(4-fluorophenyl)indazol-5-yl]oxy-propan-2-yl]-2,2,2-trifluoro-acetamide] | 11 |

Other lines, results leading:

| IC50 [nM] | SMILES |
| --- | --- |
| 6.2 | Cc1cc([C@@H](Oc2ccc3c(cnn3-c3ccc(F)cc3)c2)[C@H](C)NC(=O)C(F)(F)F)ccc1Cl [Example 168, N-[(1R,2S)-1-(4-chloro-3-methyl-phenyl)-1-[1-(4-fluorophenyl)indazol-5-yl]oxy-propan-2-yl]-2,2,2-trifluoro-acetamide] |
| 5 | Cc1ccc(F)cc1[C@@H](Oc1ccc2c(cnn2-c2ccc(F)cc2)c1)[C@H](C)NC(=O)C(C)(C)F [Example 249, 2-fluoro-N-[(1R,2S)-1-(5-fluoro-2-methyl-phenyl)-1-[1-(4-fluorophenyl)indazol-5-yl]oxy-propan-2-yl]-2-methyl-propanamide] |
| 5.4 | C[C@H](NC(=O)C(C)(F)F)[C@H](Oc1ccc2c(cnn2-c2ccc(F)cc2)c1)c1cccc(Cl)c1 [Example 232, N-[(1R,2S)-1-(3-chlorophenyl)-1-[1-(4-fluorophenyl)indazol-5-yl]oxy-propan-2-yl]-2,2-difluoro-propanamide] |
| 3.2 | Cc1cccc([C@@H](Oc2ccc3c(cnn3-c3ccc(F)cc3)c2)[C@H](C)NC(=O)C(F)(F)F)c1 [Example 24, 2,2,2-trifluoro-N-[(1R,2S)-1-[1(4-fluorophenyl)indazol-5-yl]oxy-1-(3-methylphenyl)propan-2-yl]acetamide] |
